Key:
[1] = Intranasal pharmacokinetics in plasma; type: in vivo, Sprague Dawley rats; conditions: plasma, 0.5 mg/kg IN dose, SD rats
Text: (§1) The purpose of this example was to evaluate the in vivo distribution and function of aminosterols, such as Aminosterol 1436 and squalamine, following intranasal administration. This experiment relates to the amount of drug needed to obtain a therapeutic result, based on an IN route of administration. The results described below detail that aminosterols such as Aminosterol 1436 act at the level of the hypothalamus following in vivo administration, regardless of the route of administration.

[2] = Intranasal pharmacokinetics in CSF; type: in vivo, Sprague Dawley rats; conditions: 0.5 mg/kg IN, SD rats
Text: as §1

PD population = conditions: short term placebo controlled trial; cited from earlier work
[3] = test system: patients with PD and constipation; test: Phase 2 trial Stage 2: bowel function under daily oral dosing (stool diary, PAC-QOL, PAC-SYM); type: in vivo, human; conditions: patients with baseline ≥1 CSBM/week
Protocol: Following successful screening, all subjects underwent a 14-day run-in period where the degree of constipation was assessed through a validated daily log (Zinsmeister et al. 2013) establishing baseline CSBMs/week. Subjects with an average of <3 CSBMs/week proceeded to dosing.
In Stage 2, 34 patients were evaluated.
The primary efficacy outcome variable was whether or not a subject was a “success” or “failure”. This is an endpoint based on subject diary entries for the “fixed dose” period prior to the endpoint assessment defined as average complete stool frequency increase by 1 or more over baseline, or 3 or more complete spontaneous stools/week. The subject was deemed a “success” if s/he met one or more of the criteria listed above, otherwise the subject was deemed a “failure”. The primary analysis was based on all subjects with a baseline assessment and an assessment at the end of the “fixed-dose” period and was a comparison of the proportion of successes with 0.10 (the null hypothesis corresponding to no treatment effect).

[4] = test system: colonic propagating contractile clusters (PCCs); test: Ex vivo colon motility with intraluminal squalamine, control mouse strains
Protocol: Ex vivo colon motility: For the ex vivo colonic motility experiments, the colon was excised and placed within an organ-bath perfusion chamber filled with warmed, oxygenated Krebs buffer or physiological saline (35° C., 95% 02, 5% CO2). The colon was flushed and cannulated at the oral and anal ends to a manifold and syringe to allow inflow of oxygenated Krebs buffer (or physiological saline) or Krebs and squalamine and to maintain intraluminal pressure. The height of the inflow tube at baseline measurements was parallel to the height of the colon in the organ bath (1.1 cm). Mechanical threshold defined an inflow pressure great enough to generate a contraction in under 30 sec (1.8 cm). Recordings in the first portion of the study were measured at a mechanical threshold causing a pressure differential of 2 hPa (cm H2O). Inflow was raised 2-3 hPa above baseline and outflow was raised a minimum of 0.2 hPa above inflow. Motor patterns were recorded using a Microsoft LifeCam 3000 web camera or a Logitech Quickcam Pro camera positioned 7-8 cm above the tissue. Videos were recorded during a 20-minute Krebs control and a 20-minute Krebs+squalamine period in which solutions were added to the inflow syringe.
Spatiotemporal Maps: Video recordings were used to construct spatiotemporal maps (STmaps) using edge detection software. Parameters of motor patterns including, velocity, amplitude, and frequency were measured using ImageJ and Matlab (Version 12) software.
Statistical Analysis: Effects of squalamine on motility and IPAN excitability in WT and PD model mice were assessed in paired experiments following Krebs control and subsequent squalamine exposure. Unpaired comparisons were performed for experiments comparing PD control and PD model strains. Percent difference was calculated by (treatment-control)/control. Data are presented as mean±SEM. Ex vivo statistical comparisons were performed using paired or unpaired, two-tailed t-tests or 1-way ANOVA using Graphpad Prism software (Version 7.0). In vivo studies were analysed using 1-way and 2-way ANOVA. Statistical significance was determined when p<0.05.

A53T and WT mice = test: In vivo fecal pellet output; parameters: species or system mouse
Protocol: In vivo fecal pellet output: Mice were subjected to the FPO test 1 day prior to the start of dosing with squalamine or vehicle (sterile water) (day 0). Mice were fasted for one hour and then given access to food one hour before FPO testing. On days 1-5 mice were fasted for one hour prior to oral gavage with vehicle or 20, 40, 80, or 120 mg/kg squalamine. Oral gavage occurred between 10:00 to 11:00 am daily. On day 5, the FPO test was performed 1 hour after the final dose was administered. Total number of stool pellets produced in the first 15 min and over a 60 min period was measured in each group. Stool water content was measured by comparing wet and dry weights of the stool.
In Vivo Fecal Pellet Output: Feeding of squalamine increased fecal pellet output, without substantially increasing water content, in vivo. To extend the ex vivo studies to the animal, both A53T and WT mice (N=10 mice/group/dose) were administered squalamine orally by gavage for 5 days (Day 1 to Day 5), at a range of doses from 0, 20, 40, 80 and 120 mg/kg. Fecal pellet output (FPO) within the first 15 minutes was measured following the gavage of vehicle control (on Day 0) or squalamine (on Day 5, at doses of 0, 20, 40, 80, and 120 mg/kg). There was no significant difference in the FPO in the first 15 min in WT and A53T mice between Days 0 and 5, in the groups receiving only vehicle (P>0.05). […] An increase in colonic motility should decrease the time of the stool within the colon and thereby increase the moisture content of the fecal pellets. […] Thus, squalamine appears to increase colonic transit in vivo.

[5] = test system: myenteric intrinsic primary afferent neurons (IPANs); test: Whole-cell patch clamp of IPANs, divided hemi-dissection preparation of FVB PD mouse; type: cell-based
Protocol: Whole-cell Patch Clamp: Whole-cell patch clamp was performed on a hemi-dissected myenteric plexus preparation as previously described.
IPAN excitability: PD model mice have reduced IPAN excitability. To determine the mechanism by which squalamine stimulated intestinal motility, electrophysiological studies on single neurons within the intact myenteric plexus of PD mice and corresponding control animals were conducted using published methods. In this series of studies a mouse α-synuclein knock-out model that expressed four copies of human A53T α-synuclein driven by the endogenous α-synuclein promoter (FVB PD), with the control (FVB control) represented by a strain engineered to express two copies of the normal human α-synuclein protein, was used.
IPANs from FVB PD animals were less excitable than IPANs recorded from FVB controls. The sample AP threshold (mean SD (N)) was 46% smaller for FVB control (32.2±20.0 (16)) compared to FVB PD (59.2±46.1 (20)). The number of action potentials produced by a current 2× the threshold intensity was 145% larger, 3.9±5.1 (16) for FVB control versus 1.6±0.6 (19) for FVB PD. The area under of the curve for the sAHP was 42% smaller −49.5±63.7 (16) versus −85.5±78.2 (19). RMP was depolarized by 10% for the FVB control, −56±10 (16) versus −62±6 (20).
Myenteric Primary Afferent Neuron Excitation: Squalamine excites myenteric primary afferent neurons. The effect of squalamine on the excitability of an isolated intestinal segment from the FVB PD mouse was explored using divided hemi-dissection preparations so that neurons are exposed for only half the area of an opened small intestinal segment. In this experiment, the inquiry was whether squalamine influenced the activity of the IPAN through direct interaction or indirectly, by stimulating release of epithelial mediators that influenced IPAN behaviour. Addition of squalamine (30 μM) to Krebs buffer in either the epithelial or the myenteric plexus compartments of the divided hemi-dissection preparation increased IPAN excitability. […] Addition of squalamine decreased the area under the curve of the sAHP by 77% from 86.8±88.2 to 20.3±25.3 mV·s, and depolarised RMP by 12% from −62±7 to −54±6 mV.

[6] = test system: individuals with mild constipation; conditions: cited from earlier work

CC(C)[C@@H](CC[C@@H](C)[C@H]1CC[C@H]2[C@@H]3[C@H](O)C[C@H]4C[C@@H](NCCCNCCCCN)CC[C@]4(C)[C@H]3CC[C@]12C)OS(=O)(=O)O.C[C@H](O)C(=O)O.O [squalamine lactate]
AUCInf [1]: 7863 ng·h/mL
AUC_% Extrap_obs [1]: 32.7%
AUClast [1]: 5296 ng·h/mL
AUClast/D [1]: 10600 kg·ng·h/mL/mg
Cmax [1]: 1001 ng/mL
MRTInf_obs [1]: 7.12 h
T1/2 [1]: 4.55 h
Tmax [1]: 1.00 h
presence in CSF [2]: No squalamine lactate or Aminosterol 1436 was found in CSF

CCCCC(F)(F)[C@@]1(O)CC[C@H]2[C@@H](CC(=O)[C@@H]2CCCCCCC(=O)O)O1 [Lubiprostone]
share of treated in whom effective (PD population): about 50%

CC(C)[C@@H](CC[C@@H](C)[C@H]1CC[C@H]2[C@@H]3[C@H](O)C[C@H]4C[C@@H](NCCCNCCCCN)CC[C@]4(C)[C@H]3CC[C@]12C)OS(=O)(=O)O [squalamine]
mean prokinetic dose [3]: 120 mg
increase of PCC velocity ([4]; C57BL/6 (P<0.05)): 38%
increase of PCC amplitude ([4]; C57BL/6 (P=0.27)): 1%
increase of PCC frequency ([4]; C57BL/6 (P=0.27)): 51%
PCC frequency ([4]; C57BL/6, control 0.007±0.001): 0.010±0.003 Hz
PCC amplitude ([4]; C57BL/6, control 0.66±0.06): 0.70±0.07 cm
PCC velocity ([4]; C57BL/6, control 1.31±0.10): 1.80±0.20 mm/s
increase of PCC velocity ([4]; CD-1 (P<0.01)): 81%
increase of PCC frequency ([4]; CD-1 (P=0.06)): 63%
increase of PCC amplitude ([4]; CD-1 (P=0.56)): 12%
increase of PCC velocity ([4]; Swiss Webster (P<0.0001)): 45%
increase of PCC frequency ([4]; Swiss Webster (P<0.01)): 35%
decrease of PCC amplitude ([4]; Swiss Webster (P=0.65)): 3%
stool water content (A53T and WT mice; A53T mice, 80 and 120 mg/kg (P=0.023 and 0.0004)): significantly increased water content
FPO in the first 15 min, Day 5 versus Day 0 (A53T and WT mice; A53T mice, oral gavage 5 days, 20, 40 and 80 mg/kg (P<0.005, P<0.0001, P<0.01)): significantly increased FPO
fecal pellet output (A53T and WT mice; PD and wild type mice, 40 mg/kg/d for 5 days): increased their fecal pellet output
stool water content (A53T and WT mice; WT mice, 80 mg/kg (P=0.025)): significantly increased water content
FPO in the first 15 min, Day 5 versus Day 0 (A53T and WT mice; WT mice, oral gavage 5 days, 40 and 120 mg/kg (P<0.01 and P<0.05)): significantly increased FPO
decrease of AP threshold ([5]; added to the epithelium): 44%
decrease of sAHP AUC ([5]; added to the epithelium): 77%
increase of number of APs at 2× threshold current ([5]; added to the epithelium): 87%
number of APs at 2× threshold current ([5]; added to the epithelium, before 1.6±0.6): 3.1±0.7
decrease of AP threshold ([5]; added to the myenteric plexus): 37%
decrease of sAHP AUC ([5]; added to the myenteric plexus): 87%
number of APs at 2× threshold current ([5]; added to the myenteric plexus, before 1.4±0.5): 4.4±2.8
area under the curve of the sAHP ([5]; added to the myenteric plexus, before −71.9±60.1): −9.6±15.1 mV·s

polyethylene glycol [polyethylene glycol (Magrogol)]
stool frequency and consistency [6]: shown to provide benefit
